Here are results for 17 compounds from ChEMBL document CHEMBL5252622, “Discovery of a brain-sparing GIRK1/4 inhibitor for pharmacological cardioversion of atrial fibrillation” (Bioorg Med Chem Lett, 2023).

Data set [1] deals with T1, Kir3.1/Kir3.4 (Homo sapiens, UniProt P48544+P48549).
T1 sequence (P48549 whole entry): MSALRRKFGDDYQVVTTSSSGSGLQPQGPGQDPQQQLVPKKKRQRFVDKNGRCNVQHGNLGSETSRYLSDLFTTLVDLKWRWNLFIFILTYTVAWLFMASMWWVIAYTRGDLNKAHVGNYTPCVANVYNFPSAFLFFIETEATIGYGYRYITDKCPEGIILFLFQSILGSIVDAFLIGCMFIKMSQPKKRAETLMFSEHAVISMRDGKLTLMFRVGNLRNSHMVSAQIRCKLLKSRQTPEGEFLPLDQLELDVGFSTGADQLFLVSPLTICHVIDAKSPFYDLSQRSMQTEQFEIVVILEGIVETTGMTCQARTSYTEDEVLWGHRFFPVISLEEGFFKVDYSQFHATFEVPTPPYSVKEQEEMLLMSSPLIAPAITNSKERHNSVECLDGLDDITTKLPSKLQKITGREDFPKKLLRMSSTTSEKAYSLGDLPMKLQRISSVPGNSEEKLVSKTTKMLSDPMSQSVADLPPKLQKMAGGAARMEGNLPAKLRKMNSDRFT
T1 sequence (P48544 whole entry): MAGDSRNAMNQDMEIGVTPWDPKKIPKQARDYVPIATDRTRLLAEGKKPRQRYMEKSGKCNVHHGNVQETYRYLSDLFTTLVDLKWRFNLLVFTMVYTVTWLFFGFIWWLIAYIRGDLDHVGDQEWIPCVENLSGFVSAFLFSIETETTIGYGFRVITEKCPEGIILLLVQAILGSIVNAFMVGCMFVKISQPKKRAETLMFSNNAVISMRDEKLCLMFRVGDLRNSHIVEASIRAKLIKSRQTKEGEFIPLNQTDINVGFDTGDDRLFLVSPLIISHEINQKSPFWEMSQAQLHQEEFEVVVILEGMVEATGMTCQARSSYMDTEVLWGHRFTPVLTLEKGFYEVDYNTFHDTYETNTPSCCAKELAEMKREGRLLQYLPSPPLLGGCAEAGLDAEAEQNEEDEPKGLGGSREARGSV
The data set is described as follows: Inhibition of recombinant human GIRK1/4 channel. Type of data set: protein-complex assay.

The nature of data set [2]: Aqueous solubility of the compound at pH 6.8. Type of data set: physicochemical.
Data set [3] deals with MDCK. Nature of the data set: Substrate activity at p-glycoprotein in MDCK cells overexpressing MDR1 assessed as efflux ratio of permeability from basolateral to apical side over apical to basolateral side. In kind it is cell-based. As to conditions: Canis lupus familiaris.
Data set [4] is described as follows: Apparent permeability across apical to basolateral side in MDCK cells. Type of data set: ADME, cell-based, Canis lupus familiaris. As to conditions: dog.
Data set [5] deals with T2, Kir3.1/Kir3.2 (Homo sapiens, UniProt P48051+P48549).
T2 sequence (P48549 whole entry): T1 sequence (P48549 whole entry)
T2 sequence (P48051 whole entry): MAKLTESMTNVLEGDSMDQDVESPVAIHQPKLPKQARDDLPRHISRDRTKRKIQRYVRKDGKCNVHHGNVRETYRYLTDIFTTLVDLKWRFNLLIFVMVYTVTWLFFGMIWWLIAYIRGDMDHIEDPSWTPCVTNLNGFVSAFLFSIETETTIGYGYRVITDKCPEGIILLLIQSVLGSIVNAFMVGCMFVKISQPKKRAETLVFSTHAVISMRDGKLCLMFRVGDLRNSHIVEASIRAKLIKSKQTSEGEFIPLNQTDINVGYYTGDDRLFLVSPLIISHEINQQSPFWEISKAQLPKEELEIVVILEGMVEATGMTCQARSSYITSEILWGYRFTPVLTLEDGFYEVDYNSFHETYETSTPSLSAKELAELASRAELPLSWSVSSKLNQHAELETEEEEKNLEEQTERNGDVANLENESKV
The data set is described as follows: (§1) Inhibition of recombinant human GIRK1/2 channel. In kind it is protein-complex assay.

Data set [6] in a line: Intrinsic clearance in human liver microsomes. As to conditions: read-out: CLH. Type of data set: ADME, Microsome. (Liver microsomes are a subcellular fraction often used to study metabolism.)
Data set [7] is described as follows: Intrinsic clearance in rat liver microsomes. In kind it is ADME, Microsome. As to conditions: read-out: CLH.
Data set [8] has as its target Sodium channel protein type 5 subunit alpha (Homo sapiens, UniProt Q14524). Nature of the data set: Inhibition of recombinant human Nav1.5. In kind it is toxicity.
The target in data set [9] is Voltage-dependent L-type calcium channel subunit alpha-1C (Homo sapiens, UniProt Q13936). The data set is described as follows: Inhibition of recombinant human Cav1.2. Type of data set: toxicity.
Voltage-dependent L-type calcium channel subunit alpha-1C, sequence (Q13936 whole entry): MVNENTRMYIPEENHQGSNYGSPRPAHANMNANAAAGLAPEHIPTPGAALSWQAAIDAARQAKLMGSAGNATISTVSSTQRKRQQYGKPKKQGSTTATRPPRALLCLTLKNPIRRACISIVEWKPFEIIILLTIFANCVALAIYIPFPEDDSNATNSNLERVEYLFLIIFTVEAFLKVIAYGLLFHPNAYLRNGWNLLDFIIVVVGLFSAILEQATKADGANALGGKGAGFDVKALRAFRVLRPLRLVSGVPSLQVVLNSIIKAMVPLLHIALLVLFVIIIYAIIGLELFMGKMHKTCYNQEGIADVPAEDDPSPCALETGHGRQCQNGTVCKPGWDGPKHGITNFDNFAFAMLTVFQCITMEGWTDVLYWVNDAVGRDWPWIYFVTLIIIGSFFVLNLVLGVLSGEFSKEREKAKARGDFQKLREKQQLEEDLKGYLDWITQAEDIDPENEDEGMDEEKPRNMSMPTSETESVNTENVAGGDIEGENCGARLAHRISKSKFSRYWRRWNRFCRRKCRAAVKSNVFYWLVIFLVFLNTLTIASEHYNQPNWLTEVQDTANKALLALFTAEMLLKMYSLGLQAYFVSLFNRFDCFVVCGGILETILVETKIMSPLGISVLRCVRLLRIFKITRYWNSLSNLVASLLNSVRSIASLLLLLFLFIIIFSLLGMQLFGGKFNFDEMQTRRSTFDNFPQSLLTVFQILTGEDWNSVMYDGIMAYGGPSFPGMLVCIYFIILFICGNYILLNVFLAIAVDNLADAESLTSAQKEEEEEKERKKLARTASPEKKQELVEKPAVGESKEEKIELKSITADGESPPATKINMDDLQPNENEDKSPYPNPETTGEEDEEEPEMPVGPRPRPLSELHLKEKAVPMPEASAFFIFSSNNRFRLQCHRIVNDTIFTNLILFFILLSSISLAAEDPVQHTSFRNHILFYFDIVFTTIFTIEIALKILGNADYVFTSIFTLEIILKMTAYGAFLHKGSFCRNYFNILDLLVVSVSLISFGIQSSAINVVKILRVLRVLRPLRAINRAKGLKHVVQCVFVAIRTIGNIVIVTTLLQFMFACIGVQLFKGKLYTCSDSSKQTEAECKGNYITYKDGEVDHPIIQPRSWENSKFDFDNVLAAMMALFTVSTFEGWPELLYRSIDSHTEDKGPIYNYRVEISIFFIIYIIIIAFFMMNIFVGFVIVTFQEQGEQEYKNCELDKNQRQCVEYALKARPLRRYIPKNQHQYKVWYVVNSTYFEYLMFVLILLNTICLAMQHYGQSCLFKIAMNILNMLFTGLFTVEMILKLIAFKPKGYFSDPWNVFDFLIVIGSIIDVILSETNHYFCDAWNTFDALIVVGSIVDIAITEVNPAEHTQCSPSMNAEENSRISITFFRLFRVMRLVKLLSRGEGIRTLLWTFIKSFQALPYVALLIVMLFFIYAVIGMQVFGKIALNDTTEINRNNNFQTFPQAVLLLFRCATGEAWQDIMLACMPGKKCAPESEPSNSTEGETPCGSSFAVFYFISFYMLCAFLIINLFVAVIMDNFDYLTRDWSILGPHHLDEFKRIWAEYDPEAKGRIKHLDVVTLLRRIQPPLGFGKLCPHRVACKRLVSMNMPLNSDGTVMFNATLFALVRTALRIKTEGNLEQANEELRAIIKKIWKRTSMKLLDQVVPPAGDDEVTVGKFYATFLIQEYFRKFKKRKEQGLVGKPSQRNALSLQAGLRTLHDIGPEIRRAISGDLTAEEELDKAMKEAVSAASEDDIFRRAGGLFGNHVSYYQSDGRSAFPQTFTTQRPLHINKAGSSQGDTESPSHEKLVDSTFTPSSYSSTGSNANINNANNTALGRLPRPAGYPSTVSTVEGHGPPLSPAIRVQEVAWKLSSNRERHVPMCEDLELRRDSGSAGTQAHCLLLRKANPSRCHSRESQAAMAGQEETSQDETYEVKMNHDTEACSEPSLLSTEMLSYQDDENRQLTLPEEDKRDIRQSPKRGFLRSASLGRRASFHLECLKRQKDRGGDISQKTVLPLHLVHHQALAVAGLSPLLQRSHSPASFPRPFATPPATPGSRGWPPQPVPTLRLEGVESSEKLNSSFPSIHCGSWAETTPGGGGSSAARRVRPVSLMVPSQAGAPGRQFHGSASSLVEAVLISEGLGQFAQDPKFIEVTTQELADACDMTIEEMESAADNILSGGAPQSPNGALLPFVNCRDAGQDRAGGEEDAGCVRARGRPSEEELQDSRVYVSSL
The target in data set [10] is T3, Potassium voltage-gated channel subfamily KQT member 1 (Homo sapiens, UniProt P51787).
T3 sequence (P51787 whole entry): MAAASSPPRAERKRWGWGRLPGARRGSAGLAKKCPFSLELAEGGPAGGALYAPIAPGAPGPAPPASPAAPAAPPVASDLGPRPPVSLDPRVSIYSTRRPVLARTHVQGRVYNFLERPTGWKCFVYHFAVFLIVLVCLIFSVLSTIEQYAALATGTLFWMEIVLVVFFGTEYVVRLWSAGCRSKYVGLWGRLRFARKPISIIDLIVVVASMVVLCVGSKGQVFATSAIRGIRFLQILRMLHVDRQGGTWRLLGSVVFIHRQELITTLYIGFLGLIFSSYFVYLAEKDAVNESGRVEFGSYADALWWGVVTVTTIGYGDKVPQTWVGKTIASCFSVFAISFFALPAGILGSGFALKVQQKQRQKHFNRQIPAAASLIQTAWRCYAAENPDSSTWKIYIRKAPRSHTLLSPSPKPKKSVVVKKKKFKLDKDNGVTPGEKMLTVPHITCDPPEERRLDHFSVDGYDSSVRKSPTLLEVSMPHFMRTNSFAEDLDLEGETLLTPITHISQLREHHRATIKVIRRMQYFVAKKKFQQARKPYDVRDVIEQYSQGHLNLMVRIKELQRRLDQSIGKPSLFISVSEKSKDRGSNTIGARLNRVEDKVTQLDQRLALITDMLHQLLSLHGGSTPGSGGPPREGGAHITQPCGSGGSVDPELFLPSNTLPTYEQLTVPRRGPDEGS
The data set is described as follows: Inhibition of recombinant human KCNQ1. Type of data set: toxicity.

For data set [11], the target named is Voltage-gated inwardly rectifying potassium channel KCNH2 (Homo sapiens, UniProt Q12809). Nature of the data set: Inhibition of recombinant hERG in the presence of dofetilide by competitive binding assay. In kind it is toxicity. On the technique in general: hERG is a cardiac potassium channel; its block is linked to QT prolongation.
Voltage-gated inwardly rectifying potassium channel KCNH2, sequence (Q12809 whole entry): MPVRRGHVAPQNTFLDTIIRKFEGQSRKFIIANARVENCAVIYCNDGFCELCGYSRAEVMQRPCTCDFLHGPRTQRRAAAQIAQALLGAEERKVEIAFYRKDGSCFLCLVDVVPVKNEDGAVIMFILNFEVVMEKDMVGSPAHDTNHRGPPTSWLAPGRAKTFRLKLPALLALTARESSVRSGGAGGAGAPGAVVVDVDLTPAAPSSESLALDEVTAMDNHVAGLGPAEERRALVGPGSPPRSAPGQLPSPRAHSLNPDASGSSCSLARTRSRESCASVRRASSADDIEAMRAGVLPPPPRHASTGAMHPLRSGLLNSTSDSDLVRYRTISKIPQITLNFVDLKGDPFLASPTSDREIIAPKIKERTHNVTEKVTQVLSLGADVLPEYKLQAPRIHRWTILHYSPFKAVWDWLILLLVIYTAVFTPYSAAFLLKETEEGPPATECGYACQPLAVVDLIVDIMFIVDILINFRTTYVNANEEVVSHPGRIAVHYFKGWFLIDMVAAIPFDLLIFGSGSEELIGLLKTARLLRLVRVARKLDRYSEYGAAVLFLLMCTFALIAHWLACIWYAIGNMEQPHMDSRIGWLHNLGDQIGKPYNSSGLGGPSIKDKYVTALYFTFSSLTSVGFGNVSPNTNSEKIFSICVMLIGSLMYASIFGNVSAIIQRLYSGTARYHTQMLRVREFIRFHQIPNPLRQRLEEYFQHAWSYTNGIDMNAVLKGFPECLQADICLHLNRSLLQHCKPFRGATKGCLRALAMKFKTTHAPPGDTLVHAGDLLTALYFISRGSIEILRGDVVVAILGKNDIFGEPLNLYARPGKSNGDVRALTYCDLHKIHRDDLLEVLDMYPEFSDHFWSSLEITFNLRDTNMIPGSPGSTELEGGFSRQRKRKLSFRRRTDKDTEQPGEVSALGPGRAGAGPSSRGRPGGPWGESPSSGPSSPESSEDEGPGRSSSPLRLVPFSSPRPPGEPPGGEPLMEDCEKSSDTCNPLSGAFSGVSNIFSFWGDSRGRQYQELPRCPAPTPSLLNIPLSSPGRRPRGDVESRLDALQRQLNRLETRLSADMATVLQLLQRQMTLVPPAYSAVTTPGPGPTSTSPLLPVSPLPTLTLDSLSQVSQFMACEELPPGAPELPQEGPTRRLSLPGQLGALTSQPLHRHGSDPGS
Data set [12] is described as follows: Toxicity in iv dosed rat assessed as neurobehavioral disturbances by measuring convulsions. Type of data set: organism-based. As to conditions: in vivo.
The nature of data set [13]: Toxicity in iv dosed rat assessed as neurobehavioral disturbances by measuring increase in motor activity. Type of data set: organism-based. As to conditions: in vivo.
Data set [14] in a line: Brain to plasma ratio in rat. As to conditions: read-out: BPR. In kind it is ADME.
Data set [15] has as its target Kir3.1/Kir3.2 (Homo sapiens) (UniProt P48549+P48051). The description is as §1. In kind it is protein-complex assay.

≈ marks a conversion by molar mass, not a printed value. Calls of active or inactive are those of the source. The calls are words filed in the database; no cut-off is given here.

By IC50 is commonly meant the concentration needed to halve the response being measured. A word on the solubility: it is the dissolved amount per volume that the medium holds. A higher solubility goes with much dissolved substance. Usually Papp A→B stands for the apparent permeability from the apical to the basolateral side of a cell layer. For the compound `Cc1cc(=O)c2c(F)cncc2n1-c1c(Cl)cc(C#CCO)cc1Cl`, the IC50 in [1] is 140 nM. In data set [2], the concentration in solution (solubility) was 170 µM (≈ 64.1 µg/mL). Moreover, in data set [3], the Ratio worked out at 1.7. Further, the Papp A→B in [4] stood at 26.6 ×10⁻⁶ cm/s.
The matching figures for `Cc1cc(=O)c2c(F)cncc2n1-c1c(Cl)cc(C#CCN2CCOCC2)cc1Cl`: 220 nM, 240 µM (≈ 107 µg/mL), 1.1 and 20.4 ×10⁻⁶ cm/s.
The matching figures for `O=c1cc(CO)n(-c2c(Cl)cccc2Cl)c2c(Cl)cnc(OC(CO)CO)c12`: 250 nM, 300 µM (≈ 134 µg/mL), 18.3 and 6.9 ×10⁻⁶ cm/s.
Take `COc1ncc(C)c2c1c(=O)cc(CO)n2-c1c(Cl)cccc1Cl`: in data set [1], the IC50 was 290 nM. The concentration in solution in data set [2] (solubility) was 280 µM (≈ 102 µg/mL). The Papp A→B in data set [4] came to 8.5 ×10⁻⁶ cm/s.
The matching figures for `Cc1cc(=O)c2c(OCC(O)CO)nc(N3CCOCC3)cc2n1-c1c(Cl)cccc1Cl` (stereo unspecified): over 5000 nM, 680 µM (≈ 327 µg/mL) and 13.1 ×10⁻⁶ cm/s.
In the case of `O=c1cc(CO)n(-c2c(Cl)cccc2Cl)c2c(Cl)cnc(OCC(O)CO)c12` (stereo unspecified), the IC50 in data set [1] turned out to be 80 nM. For the same compound, the solubility in data set [2] came out at 700 µM (≈ 312 µg/mL). For the same compound, in data set [3], the Ratio is 12.1. The Papp A→B in data set [4] worked out at 7 ×10⁻⁶ cm/s.
The matching figures for `CS(=O)(=O)CCCOc1ncc(Cl)c2c1c(=O)cc(CO)n2-c1c(Cl)cccc1Cl`: 100 nM, 500 µM (≈ 246 µg/mL), 40.7 and 10.1 ×10⁻⁶ cm/s.
Consider `Cc1cc(=O)c2c(F)cncc2n1-c1c(Cl)cc(C#N)cc1Cl`, for which the IC50 in data set [1] is 190 nM; in data set [5], 200 nM; in data set [8], over 50 µM; in data set [9], over 50 µM; in data set [10] it was over 50 µM; in data set [11] it was over 30 µM. The compound also registered a solubility in [2] of 52 µM (≈ 18.1 µg/mL). Also, the microsomal CLint in [6] came to 12 µL/min/mg; in data set [7] it was 18 µL/min/mg. In addition, in data set [3], the Ratio was 1.8. Moreover, in [4], the Papp A→B turned out to be 13.9 ×10⁻⁶ cm/s. Further, the Activity result in [12] and in [13] was “Toxic” in each case.
Regarding `Cc1cc(=O)c2c(OCC(O)CC(O)CO)ncc(Cl)c2n1-c1c(Cl)cccc1Cl` (stereo unspecified), the half-maximal inhibitory concentration (IC50) in data set [1] was 87 nM. In data set [2], the solubility was 230 µM (≈ 109 µg/mL). In addition, in [3], the Ratio was 4.5. Besides, the apparent permeability from apical to basolateral (Papp A→B) in data set [4] stood at 16.6 ×10⁻⁶ cm/s.
As for `Cc1cc(=O)c2c(OCCO)ncc(Cl)c2n1-c1c(Cl)cccc1Cl`, in data set [2], the concentration in solution (solubility) was 430 µM (≈ 172 µg/mL). The Ratio in [3] was found to be 0.7. The Papp A→B in data set [4] was 32.6 ×10⁻⁶ cm/s.
With `Cc1cc(=O)c2c(OCC(O)COCC(O)CO)ncc(Cl)c2n1-c1c(Cl)cccc1Cl` (stereo unspecified), the concentration in solution in [2] (solubility) was 720 µM (≈ 363 µg/mL). Further, the Ratio in data set [3] is 15. For the same compound, the Papp A→B in data set [4] turned out to be 7.5 ×10⁻⁶ cm/s.
For `COc1cc(Cl)c(-n2c(C)cc(=O)c3c(F)cncc32)c(Cl)c1`, the IC50 in data set [1] was 2 nM. The compound further returned a solubility in [2] of 46 µM (≈ 16.2 µg/mL). Further, the Ratio in data set [3] was 1.1. Besides, the Papp A→B in data set [4] is 39.1 ×10⁻⁶ cm/s.
Take `Cc1cc(=O)c2c(F)cncc2n1-c1c(Cl)cc(OCC(O)CO)cc1Cl` (stereo unspecified): the IC50 in data set [1] was 11 nM. In [2], the solubility was determined as 660 µM (≈ 273 µg/mL). Besides, in data set [3], the Ratio was 0.9. The Papp A→B in data set [4] stood at 31 ×10⁻⁶ cm/s. In addition, the Kp in [14] is 1.
Consider `CSc1c(C#N)c(=O)c2ccc(F)cc2n1-c1c(Cl)cccc1Cl`, for which the IC50 in data set [1] is 50 nM; in data set [8], over 50 µM; in data set [9] it was 24.2 µM; in data set [10], 33 µM; in data set [11] it was over 30 µM. The inhibition result in data set [15] is “inactive”. This compound also came in with a solubility in data set [2] of 13 µM (≈ 4.93 µg/mL). Moreover, the microsomal CLint in [6] was found to be 77 µL/min/mg; in data set [7], 236 µL/min/mg.
Regarding `Cc1cc(=O)c2c(OCCOCCOCCOCCO)ncc(Cl)c2n1-c1c(Cl)cccc1Cl`, the solubility in [2] is 600 µM (≈ 319 µg/mL). Also, the Ratio in [3] was 5.7. In [4], the apparent permeability from apical to basolateral (Papp A→B) was 23 ×10⁻⁶ cm/s.
On to `O=c1cc(CO)n(-c2c(Cl)cccc2Cl)c2c(Cl)cnc(OC[C@@H](O)CO)c12`, for which the IC50 was 150 nM in data set [1]; over 50 µM in [8]; over 50 µM in [9]; over 50 µM in [10]; over 50 µM in data set [11]. For the same compound, the Ratio in data set [3] is 10.6. In addition, the Papp A→B in data set [4] turned out to be 5 ×10⁻⁶ cm/s.
Regarding `COc1ncc(Cl)c2c1c(=O)cc(CO)n2-c1c(Cl)cccc1Cl`, in data set [1], the IC50 came to 27 nM. For the same compound, the concentration in solution in [2] (solubility) was 89 µM (≈ 34.3 µg/mL). The Ratio in data set [3] was found to be 2.7. Besides, the apparent permeability from apical to basolateral (Papp A→B) in data set [4] amounted to 22.6 ×10⁻⁶ cm/s.
